Source: PubChem BioAssay AID2060606 (Molecular Pharmacology Branch, DTP, NCI, 2025)
Each block holds one compound with its values, some of them ahead of it.

Test system: 922993-354-T-J3-PDC complex spheroids, viability, % test/control
Test: Anticancer human tumor 922993-354-T-J3-PDC patient-derived endometrial carcinoma cell line growth inhibition [CLK]
Details: for IC50: curve of first compound; for viability, T/C: stronger effect = lower value
In short: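 Patient-derived tumor cells grown as complex spheroids with HUVEC endothelial cells and mesenchymal stem cells, treated with drug combinations. Concentrations descend in half-log steps from near clinical Cmax, or from 10 microM if Cmax unknown.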

[1] = second compound 0.0316 µM, first compound 0.0316 µM
[2] = second compound 0.0316 µM, first compound 0.1 µM
[3] = second compound 0.0316 µM, first compound 0.316 µM
[4] = second compound 0.0316 µM, first compound 1 µM
[5] = second compound 0.0316 µM, first compound 3.16 µM
[6] = second compound 0.0316 µM, first compound 10 µM
[7] = second compound 0.1 µM, first compound 0.0316 µM
[8] = second compound 0.1 µM, first compound 0.1 µM
[9] = second compound 0.1 µM, first compound 0.316 µM
[10] = second compound 0.1 µM, first compound 1 µM
[11] = second compound 0.1 µM, first compound 3.16 µM
[12] = second compound 0.1 µM, first compound 10 µM
[13] = second compound 0.316 µM, first compound 0.0316 µM
[14] = second compound 0.316 µM, first compound 0.1 µM
[15] = second compound 0.316 µM, first compound 0.316 µM
[16] = second compound 0.316 µM, first compound 1 µM
[17] = second compound 0.316 µM, first compound 3.16 µM
[18] = second compound 0.316 µM, first compound 10 µM
[19] = second compound 1 µM, first compound 0.0316 µM
[20] = second compound 1 µM, first compound 0.1 µM
[21] = second compound 1 µM, first compound 0.316 µM
[22] = second compound 1 µM, first compound 1 µM
[23] = second compound 1 µM, first compound 3.16 µM
[24] = second compound 1 µM, first compound 10 µM
[25] = second compound 3.16 µM, first compound 0.0316 µM
[26] = second compound 3.16 µM, first compound 0.1 µM
[27] = second compound 3.16 µM, first compound 0.316 µM
[28] = second compound 3.16 µM, first compound 1 µM
[29] = second compound 3.16 µM, first compound 3.16 µM
[30] = second compound 3.16 µM, first compound 10 µM
[31] = second compound 10 µM, first compound 0.0316 µM
[32] = second compound 10 µM, first compound 0.1 µM
[33] = second compound 10 µM, first compound 0.316 µM
[34] = second compound 10 µM, first compound 1 µM
[35] = second compound 10 µM, first compound 3.16 µM
[36] = second compound 10 µM, first compound 10 µM
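Also: spheroids exposed to the agents for 7 days before readout.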

IC50 (second compound 0.0316 µM): > 10 µM
IC50 (second compound 0.1 µM): > 10 µM
IC50 (second compound 0.316 µM): > 10 µM
IC50 (second compound 1 µM): < 0.0316 µM
IC50 (second compound 3.16 µM): < 0.0316 µM
IC50 (second compound 10 µM): < 0.0316 µM
SMILES: CC(=O)O[C@H]1C(=O)[C@@]2(C)[C@H]([C@H](OC(=O)c3ccccc3)[C@]3(O)C[C@H](OC(=O)[C@H](O)[C@@H](NC(=O)c4ccccc4)c4ccccc4)C(C)=C1C3(C)C)[C@]1(OC(C)=O)CO[C@@H]1C[C@@H]2O + CNC(=O)c1ccc(Nc2nc(OC3CCCC3)c3c(-c4ccc5nc(C)oc5c4)c[nH]c3n2)c(OC)c1
viability, T/C [1]: 113%
viability, T/C [2]: 104%
viability, T/C [3]: 99.3%
viability, T/C [4]: 99.2%
viability, T/C [5]: 69.3%
viability, T/C [6]: 51%
viability, T/C [7]: 101%
viability, T/C [8]: 92.1%
viability, T/C [9]: 104%
viability, T/C [10]: 77.1%
viability, T/C [11]: 61.2%
viability, T/C [12]: 51.8%
viability, T/C [13]: 60.2%
viability, T/C [14]: 59%
viability, T/C [15]: 66.8%
viability, T/C [16]: 73.2%
viability, T/C [17]: 79.7%
viability, T/C [18]: 68.1%
viability, T/C [19]: 42.6%
viability, T/C [20]: 46%
viability, T/C [21]: 44.7%
viability, T/C [22]: 45.9%
viability, T/C [23]: 51.1%
viability, T/C [24]: 47.1%
viability, T/C [25]: 34.6%
viability, T/C [26]: 41.4%
viability, T/C [27]: 35.8%
viability, T/C [28]: 44.3%
viability, T/C [29]: 42.6%
viability, T/C [30]: 39.9%
viability, T/C [31]: 35.4%
viability, T/C [32]: 39.2%
viability, T/C [33]: 40.2%
viability, T/C [34]: 37.4%
viability, T/C [35]: 44.9%
viability, T/C [36]: 36.1%

IC50 (second compound 0.0316 µM): > 10 µM
IC50 (second compound 0.1 µM): > 10 µM
IC50 (second compound 0.316 µM): > 10 µM
IC50 (second compound 1 µM): < 0.0316 µM
IC50 (second compound 3.16 µM): < 0.0316 µM
IC50 (second compound 10 µM): < 0.0316 µM
SMILES: COc1ccc([C@@H](O)c2cc(-c3ncnc4cc(N5CCOCC5)ccc34)c(F)cc2Cl)nn1 + CNC(=O)c1ccc(Nc2nc(OC3CCCC3)c3c(-c4ccc5nc(C)oc5c4)c[nH]c3n2)c(OC)c1
viability, T/C [1]: 113%
viability, T/C [2]: 112%
viability, T/C [3]: 130%
viability, T/C [4]: 121%
viability, T/C [5]: 113%
viability, T/C [6]: 91.2%
viability, T/C [7]: 104%
viability, T/C [8]: 110%
viability, T/C [9]: 99.7%
viability, T/C [10]: 125%
viability, T/C [11]: 104%
viability, T/C [12]: 92.5%
viability, T/C [13]: 64.3%
viability, T/C [14]: 64.5%
viability, T/C [15]: 66.6%
viability, T/C [16]: 67.8%
viability, T/C [17]: 87.1%
viability, T/C [18]: 71.9%
viability, T/C [19]: 39.3%
viability, T/C [20]: 40.6%
viability, T/C [21]: 40%
viability, T/C [22]: 40.9%
viability, T/C [23]: 52.1%
viability, T/C [24]: 56.8%
viability, T/C [25]: 31.8%
viability, T/C [26]: 28.8%
viability, T/C [27]: 34.8%
viability, T/C [28]: 41.2%
viability, T/C [29]: 45.8%
viability, T/C [30]: 41%
viability, T/C [31]: 34%
viability, T/C [32]: 30.6%
viability, T/C [33]: 41.6%
viability, T/C [34]: 33.8%
viability, T/C [35]: 44.2%
viability, T/C [36]: 37.1%

IC50 (second compound 0.0316 µM): 3.13 µM
IC50 (second compound 0.1 µM): 3.77 µM
IC50 (second compound 0.316 µM): 1.89 µM
IC50 (second compound 1 µM): < 0.0316 µM
IC50 (second compound 3.16 µM): < 0.0316 µM
IC50 (second compound 10 µM): < 0.0316 µM
SMILES: COc1cccc2c1C(=O)c1c(O)c3c(c(O)c1C2=O)CC(O)(C(=O)CO)CC3OC1CC(N)C(O)C(C)O1 (stereo unspecified) + CNC(=O)c1ccc(Nc2nc(OC3CCCC3)c3c(-c4ccc5nc(C)oc5c4)c[nH]c3n2)c(OC)c1
viability, T/C [1]: 101%
viability, T/C [2]: 116%
viability, T/C [3]: 102%
viability, T/C [4]: 78%
viability, T/C [5]: 52.3%
viability, T/C [6]: 22.1%
viability, T/C [7]: 122%
viability, T/C [8]: 123%
viability, T/C [9]: 108%
viability, T/C [10]: 85.7%
viability, T/C [11]: 57%
viability, T/C [12]: 18.7%
viability, T/C [13]: 77%
viability, T/C [14]: 63%
viability, T/C [15]: 66.6%
viability, T/C [16]: 71.3%
viability, T/C [17]: 34.3%
viability, T/C [18]: 17.5%
viability, T/C [19]: 43.1%
viability, T/C [20]: 44.3%
viability, T/C [21]: 22.2%
viability, T/C [22]: 23.5%
viability, T/C [23]: 25.9%
viability, T/C [24]: 3.3%
viability, T/C [25]: 36.8%
viability, T/C [26]: 21.1%
viability, T/C [27]: 18.2%
viability, T/C [28]: 21.7%
viability, T/C [29]: 10.2%
viability, T/C [30]: 0.97%
viability, T/C [31]: 27.5%
viability, T/C [32]: 12.8%
viability, T/C [33]: 16.8%
viability, T/C [34]: 24.5%
viability, T/C [35]: 3.31%
viability, T/C [36]: 1.92%
